This note sets out measurements from PMC6273962, “Design, Synthesis and Structure-Activity Relationships of Novel Diaryl Urea Derivatives as Potential EGFR Inhibitors” (Molecules, 2016).

This test concerns the target EGFR (Homo sapiens, UniProt P00533). The experiment in a line: mobility shift kinase assay (Caliper, FAM-labeled peptide). The test is classed as biochemical.

Chain of EGFR (P00533 25-1210): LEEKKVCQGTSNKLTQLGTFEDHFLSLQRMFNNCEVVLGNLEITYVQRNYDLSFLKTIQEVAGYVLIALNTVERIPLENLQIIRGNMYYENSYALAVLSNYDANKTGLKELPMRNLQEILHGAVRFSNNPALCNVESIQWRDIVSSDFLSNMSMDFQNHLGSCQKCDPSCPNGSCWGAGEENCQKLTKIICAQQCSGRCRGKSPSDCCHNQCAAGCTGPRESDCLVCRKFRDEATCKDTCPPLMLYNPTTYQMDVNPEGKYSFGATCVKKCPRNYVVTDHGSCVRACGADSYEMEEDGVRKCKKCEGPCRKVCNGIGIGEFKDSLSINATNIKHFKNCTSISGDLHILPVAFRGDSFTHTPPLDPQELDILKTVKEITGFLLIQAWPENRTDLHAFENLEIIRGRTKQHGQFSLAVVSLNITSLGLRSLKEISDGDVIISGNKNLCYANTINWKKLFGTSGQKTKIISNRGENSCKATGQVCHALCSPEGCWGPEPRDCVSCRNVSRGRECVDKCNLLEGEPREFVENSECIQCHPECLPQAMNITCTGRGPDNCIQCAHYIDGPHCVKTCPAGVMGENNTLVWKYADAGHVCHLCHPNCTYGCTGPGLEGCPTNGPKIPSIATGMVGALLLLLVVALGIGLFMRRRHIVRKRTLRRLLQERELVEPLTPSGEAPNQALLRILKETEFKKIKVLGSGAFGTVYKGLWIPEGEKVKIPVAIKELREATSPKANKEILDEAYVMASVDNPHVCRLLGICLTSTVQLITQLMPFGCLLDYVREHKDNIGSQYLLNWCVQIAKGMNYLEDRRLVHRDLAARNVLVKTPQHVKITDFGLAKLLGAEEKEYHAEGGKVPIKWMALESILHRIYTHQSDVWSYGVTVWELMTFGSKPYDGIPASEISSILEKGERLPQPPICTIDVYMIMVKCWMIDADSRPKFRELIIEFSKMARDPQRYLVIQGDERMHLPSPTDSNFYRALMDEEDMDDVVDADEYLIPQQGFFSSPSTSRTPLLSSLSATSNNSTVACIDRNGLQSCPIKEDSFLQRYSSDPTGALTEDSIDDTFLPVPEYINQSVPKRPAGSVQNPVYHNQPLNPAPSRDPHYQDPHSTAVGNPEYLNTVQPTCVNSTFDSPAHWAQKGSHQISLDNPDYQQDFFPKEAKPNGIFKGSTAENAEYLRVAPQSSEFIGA

What is called IC50 is the midpoint of a concentration-inhibition curve. As to `Cc1cccc(Cl)c1NC(=O)Nc1ccc(-c2nc(NCCN(C)C)c3ccccc3n2)cc1` [5a, 1-(2-Chloro-6-methylphenyl)-3-(4-(4-((2-(dimethylamino)ethyl)amino)quinazolin-2-yl)phenyl)urea], the half-maximal inhibitory concentration (IC50) amounted to 56 nM.
